These results are taken from publication PMC11647902, “Design, Synthesis, and Biological Evaluation of [1,2,5]Oxadiazolo[3,4-b]pyridin-7-ol as Mitochondrial Uncouplers for the Treatment of Obesity and Metabolic Dysfunction-Associated Steatohepatitis” (Journal of Medicinal Chemistry, 2024).

One data set is described as follows: in vivo. As to conditions: male, C57BL/6, mouse, plasma, po, 10 mg/kg.
The subject of a further data set is L6 rat myoblasts. The data set is described as follows: OCR Seahorse assay (oxygen consumption rate, mitochondrial uncoupling). The note with it: for EC50 / Emax at 200 µM: Rattus norvegicus; for EC50: L6; for Emax at 200 µM: L6, read-out: % of BAM15 OCR, L6 myoblasts, integrated area under OCR dose curve above baseline relative to BAM15 of same experiment, NA = No Activity, highest tested concentration 200 μM.

For the next data set, the system named is GAN mouse model of MASH. In words: Gubra-Amylin NASH (GAN) diet mouse model of MASH. The class given is in vivo.
The subject of another data set is L6 myoblast cells. The data set is described as follows: Mitochondrial stress test and self-limiting test (OCR). The note with it: L6 myoblasts.
Details of data set [1]: method as in PMID 38629387. As to conditions: STEP-1 clinical trials; cited from earlier work.
Setting [2] is: 200 mg kg^–1 in GAN diet, 4 weeks.

Some results are limits rather than exact numbers.

What is called Cmax is the highest concentration seen after dosing. Broadly, the half-life is how long it takes for the measured level to halve. Read a high half-life as slow loss. Broadly, the EC50 is the concentration that produces a half-maximal response. Read a low EC50 as a more potent agent.

Description for L6 rat myoblasts: With 7 and 9 derivatives in hand, we screened for mitochondrial uncoupling activity as a function of oxygen consumption rate (OCR). […] OCR was measured using an Agilent Seahorse XF24 or XFe96 Analyzer (Agilent Technologies, Santa Clara, CA). L6 myoblasts were seeded in a Seahorse 24 or 96-well tissue culture plate at a density of 3.5 × 10^4 cells/well. The cells were then allowed to adhere overnight. […] Compounds were injected during the assay, and OCR was measured using 2 min measurement periods. Cells were treated with a single drug concentration per well and measured over a 90 min period. Two wells were used per condition and, where applicable, results from multiple plates were averaged together. The first three measurements after injection for each concentration were averaged to produce a dose curve. […] AUC values were also calculated using the same software.
Description for in vivo: The exposure levels in plasma were determined by liquid chromatography/mass spectrometry (LC/MS) and half-life was calculated. […] Samples were processed at UNSW for liquid chromatography tandem mass spectrometry (LC–MS/MS) by protein precipitation into a mixture of acetonitrile/methanol solution (AcN-MeOH, 9:1). Seven μL of plasma was precipitated in 100 μL of AcN-MeOH, followed by centrifugation at 18,000g for 10 min and collection of the supernatant for analysis. […] Chromatographic separation was achieved using an ACUITY UPLC BEH, C18 column (Waters, WT186002350, USA). Mobile phase A consisted of 0.1% v/v formic acid in HLPC grade water, while mobile phase B consisted of 0.1% v/v formic acid in ACN. Electrospray ionization (ESI) was performed in negative mode. […] Pharmacokinetic properties were calculated using PKSolver add-in tool (Excel).

In the data set “in vivo”, `Oc1c(Nc2ccc(-c3cccc(F)c3)cc2)cnc2nonc12` [7al, 6-((3′-Fluoro-[1,1′-biphenyl]-4-yl)amino)-[1,2,5]oxadiazolo[3,4-b]pyridin-7-ol] showed a Cmax at 24 h of 4 µM and a half-life at 24 h of 0.9 ± 0.34 h. In addition, in the data set with L6 rat myoblasts, the midpoint of the response, the EC50, lay at 1200 ± 100 nM and the Emax at 200 µM stood at 36%.

For the molecule `Oc1c(Nc2ccc(-c3cccc(Cl)c3)cc2)cnc2nonc12` [SHO1122147, 6-((3′-Chloro-[1,1′-biphenyl]-4-yl)amino)-[1,2,5]oxadiazolo[3,4-b]pyridin-7-ol], the “loss of body weight” value with GAN mouse model of MASH (200 mg kg^–1 admixed in GAN diet, 4 weeks) was determined as 15.4%. In the data set on GAN mouse model of MASH (setting [2]), the “fat mass as percent of body weight (EchoMRI)” value was “lowering fat mass”, the “fat-free lean mass as percent of body weight (EchoMRI)” value is given as “increasing fat-free lean mass”, the liver mass result is recorded as “no significant change” and the liver triglycerides result is “decreased”. For the same molecule, in the data set on GAN mouse model of MASH (setting [2]), the “plasma alanine aminotransferase (ALT)” value is recorded as “decreased”. In addition, the fibrosis stage entry in the data set with GAN mouse model of MASH (200 mg kg^–1 in GAN diet, 4 weeks, compared to GAN controls) was “No changes”. The MAFLD activity score result with GAN mouse model of MASH (200 mg kg^–1 in GAN diet, 4 weeks, primarily due to decreased hepatic steatosis) is reported as “significant decrease”. The caloric intake entry in the data set with GAN mouse model of MASH (200 mg kg^–1 in GAN diet, food intake monitored daily) was “no significant changes”. The body temperature result in the data set on GAN mouse model of MASH (200 mg kg^–1 day^–1) is “without changes in body temperature”. Also, the “respiration (OCR) in self-limiting test” value in the data set with L6 myoblast cells (SHO1122147 10 μM, BAM15 1.1 μM) came to 200%. Besides, the “OCR after blockade with oligomycin” value with L6 myoblast cells (oligomycin 1 μM, then SHO1122147 10 μM or BAM15 1.1 μM at t = 40 min) is on record as “increased OCR”. In the data set “in vivo”, this molecule showed a Cmax at 24 h of 35 µM and a half-life at 24 h of 2 ± 0.07 h. Further, in the data set with L6 rat myoblasts, a half-maximal response (EC50) required 3600 ± 100 nM and the Emax at 200 µM was determined as 55%.

In the case of `Oc1c(Nc2ccc(-c3ccc(F)cc3)cc2)cnc2nonc12` [7ao, 6-((4′-Fluoro-[1,1′-biphenyl]-4-yl)amino)-[1,2,5]oxadiazolo[3,4-b]pyridin-7-ol], in the data set “in vivo”, the highest level (Cmax at 24 h) was 6 µM and the half-life at 24 h was 0.9 ± 0.07 h. For the same molecule, in the data set with L6 rat myoblasts, the 50% effective concentration (EC50) was 1700 ± 200 nM and the Emax at 200 µM was less than 50%.

Take `Oc1c(Nc2ccc(-c3ccc(Cl)cc3)cc2)cnc2nonc12` [7ap, 6-((4′-Chloro-[1,1′-biphenyl]-4-yl)amino)-[1,2,5]oxadiazolo[3,4-b]pyridin-7-ol]: in “in vivo”, the highest level (Cmax at 24 h) was 4 µM and the half-life at 24 h was 1.8 ± 0.25 h. Besides, in the data set with L6 rat myoblasts, the midpoint of the response, the EC50, lay at 900 ± 100 nM and the Emax at 200 µM was less than 50%.

As to `Oc1c(Nc2ccc(-c3ccc(C(F)(F)F)cc3)cc2)cnc2nonc12` [7aq, 6-((4′-(Trifluoromethyl)-[1,1′-biphenyl]-4-yl)amino)-[1,2,5]oxadiazolo[3,4-b]pyridin-7-ol], in the data set with L6 rat myoblasts (L6 myoblasts), the “uncoupling (OCR) activity in words” value is listed as “not tolerated”. Further, in the data set on L6 rat myoblasts (L6 myoblasts, at higher concentrations), the “cellular toxicity in OCR assay” value was “exhibited toxicity”.

On to `Oc1c(-c2ccc(-c3ccc(F)cc3)cc2)cnc2nonc12` [9h, 6-(4′-Fluoro-[1,1′-biphenyl]-4-yl)-[1,2,5]oxadiazolo[3,4-b]pyridin-7-ol], for which the “uncoupling (OCR) activity in words” value with L6 rat myoblasts (L6 myoblasts) was “inactive”.

On to `CC(C)(C)c1ccc(Nc2cnc3nonc3c2O)cc1` [7e, 6-((4-(tert-Butyl)phenyl)amino)-[1,2,5]oxadiazolo[3,4-b]pyridin-7-ol], for which, in the data set with L6 rat myoblasts, the half-maximal effective concentration (EC50) came to 2000 ± 400 nM and the Emax at 200 µM stood at 7%.

As to semaglutide, in data set [1], the “loss of lean mass” value was “up to 40%”.

For the molecule `Oc1c(Nc2ccc(SC(F)(F)F)cc2)cnc2nonc12` [7h, 6-((4-((Trifluoromethyl)thio)phenyl)amino)-[1,2,5]oxadiazolo[3,4-b]pyridin-7-ol], in the data set on L6 rat myoblasts, the response was half-maximal at 6000 ± 400 nM (EC50) and the Emax at 200 µM worked out at 38%.

For the molecule `Oc1c(-c2ccc(Cl)cc2)cnc2nonc12` [9e, 6-(4-Chlorophenyl)-[1,2,5]oxadiazolo[3,4-b]pyridin-7-ol], in the data set with L6 rat myoblasts, the concentration for a half-maximal effect (EC50) was determined as 12000 ± 600 nM and the Emax at 200 µM turned out to be 52%.

`Oc1c(Nc2cccc(C(F)(F)F)c2F)cnc2nonc12` [7ab, 6-((2-Fluoro-3-(trifluoromethyl)phenyl)amino)-[1,2,5]oxadiazolo[3,4-b]pyridin-7-ol]: in the data set on L6 rat myoblasts, the EC50 was 43000 ± 5200 nM and the Emax at 200 µM stood at 71%.
